Legend:
[1] = tested on: rumen fluid from live cows; test: Fermentation of dried grass with rumen fluid from fistulated cows that drank dilute vitamin K1 solution; assay type: in vivo, cow; settings: drinking water, 100 ml of tincture to 20 litres of water
Description: The collected rumen fluid was then fermented with dried grass in the fermenter described in Example 1 and FIG. 1.

[2] = tested on: rumen regions AD, PD, PV, AV; test: Natural fermentation and pH of fluid from different rumen regions; assay type: cell-based, cow; settings: FIG. 13
Description: The different rumen regions were sampled by collecting the rumen of a slaughtered animal and making a cut with a sterile knife in a particular region and then palpating fluid samples using gloved hands from the cut. Cuts were made in the anterior dorsal region of the rumen (AD), the posterior region (PD), the posterior ventral (PV) and the anterior ventral (AV).
FIG. 13 is a graph showing the results of natural fermentation (without the addition of substrate other than the material eaten by the cow before death), according to one or more embodiments.
The pH difference between experimental, which were dosed with vitamin K1, and the controls, which were not dosed with vitamin K1, was greatest at position AD. The average pH in the control samples was 6.51 and in the experimental samples, the average pH was 6.34.

methanogens = test: Fermentation of methyl alcohol in rumen fluid; assay type: cell-based, cow; settings: MeOH added to rumen fluid with or without vitamin K1
Experimental: The MeOH was added in equal volumes to tubes containing rumen fluid with (E) or without (C) the addition of vitamin K1. The results are shown as symbols on the Y-axis in FIG. 13, according to one or more embodiments.

pig faeces = test: Fermentation of diluted pig faeces; assay type: cell-based; settings: 1% steep fluid
Experimental: Fresh pig faeces samples were mixed with an equal volume of distilled water.
Six 50 ml fermentation tubes were used in the fermentation experiment.
The controls were […] fermentation tubes filled to the top with diluted pig faeces.
The fermentation tubes were gently agitated in a water bath held in the dark at 36° C.

`CC1=C(C/C=C(\C)CCC[C@H](C)CCC[C@H](C)CCCC(C)C)C(=O)c2ccccc2C1=O` [vitamin K1] was tested, and the “reduction in carbon dioxide production” value [1] was “approximately 29%”, the “reduction in methane production” value [1] was “approximately 20%” and the “reduction in total gas production” value [1] was “approximately 25%”. The “rumen region of greatest inhibition” value [2] was “maximum inhibitory effect in the PV region”, the “rate of methane production in rumen regions” value ([2]; natural fermentation without added substrate) was “lower the rate of methane production” and the “fermentation of MeOH by methanogens” value (methanogens) was “strongly inhibits”. For the same molecule, the “emission of methane gas from faeces” value (pig faeces) was “completely inhibited”.

— patent publication US12263140B1, “Methods of reducing the production of greenhouse gases from animals” (AGRICULTURAL SCIENCES LIMITED, priority 2023, dated 2025)
